Experimental findings from patent publication US11366121B2, “Specific GNAI:GIV interaction screening assays, methods and compositions” (The Regents of the University of California, priority 2017, dated 2022) are described below.

For one assay, the target named is GIV:Gαi3 interaction (Homo sapiens, UniProt P08754). In words: fluorescence polarization (FP) assay monitoring the GIV:Gαi3 interaction, dose response curves. In kind it is binding. As to conditions: FIG. 11D. As for the experimental part:
(§1) FIGS. 11A-11E. A HTS-compatible fluorescence polarization (FP) assay to monitor the GIV:Gαi3 interaction.
(§2) FIG. 14. Kd's determined from fluorescence polarization assays with FITC peptides and hGαi3.
(§3) A pilot screen of the LOPAC1280 library (collection of known bioactive compounds) was conducted and identified lead compounds with inhibitory activity (FIG. 11A). A virtual ligand screen (VLS) of the same library (LOPAC1280) was conducted using in silico docking methods (FIG. 11B). The results from both screens were compared. […] From the virtual screen 7 ‘hits’ (FIG. 11B) were identified. Importantly, 2 of the virtual screen hits matched the results from the FP assay and a third was validated as a GIV:Gαi inhibitor. Compounds were validated by dose response curves (FIG. 11D). […] None of the other 4 hits predicted by the VLS inhibited binding.
On the technique in general: Polarisation of emitted light reports the rotation of a fluorescent probe.

A further assay has as its target GIV:Gαi (Homo sapiens, UniProt P08754). Description: GST-pulldown assay confirming hits. In kind it is binding. As to conditions: FIG. 11E. As for the experimental part:
as §3

Assay [1] concerns the target GIV:Gαi3 (hGαi3 with FITC-labelled GIV C-terminal peptide KTGSPGSEVVTLQQFLEESNKLTSVQIKSSS, SEQ ID NO: 1) (Homo sapiens, UniProt P08754). Description: Inhibition of GIV:Gαi3 interaction by fluorescence polarization (FITC-GIV peptide binding to hGαi3); confirmed hits, FIG. 10.
Text: FIG. 10. Further analysis of confirmed hits validate the assay to identify inhibitors of the target.
as §1, §2
The present invention provides a research tool assay for identifying a specific modulator of GNAI, comprising: (a) combining a drug candidate with GNAI and a C-terminal GIV peptide and determining if the drug candidate inhibits GNAI interaction with the C-terminal GIV peptide; and (b) combining the drug candidate with GNAI and a DAPLE peptide and determining if the drug candidate inhibits GNAI interaction with DAPLE peptide.
In embodiments, the C-terminal GIV peptide comprises the amino acid sequence of SEQ ID NO: 1. In embodiments, the DAPLE peptide comprises the amino acid sequence of SEQ ID NO:2.
In embodiments, the determining steps are detected by fluorescent polarization.
In embodiments, the invention provides an assay and method for screening for drug candidates which act as specific inhibitors against the GNAI:GIV interface. […]
As for the first step in the assay, this small region of 31 aa GIV peptide: […] (SEQ ID NO: 1) was arrived at after careful biochemistry determined that anything less than this is less efficient in binding or activation the G protein, GNAI. […]

SMILES strings stand for the structures.

GIV:Gαi3 interaction, sequence (P08754 whole entry): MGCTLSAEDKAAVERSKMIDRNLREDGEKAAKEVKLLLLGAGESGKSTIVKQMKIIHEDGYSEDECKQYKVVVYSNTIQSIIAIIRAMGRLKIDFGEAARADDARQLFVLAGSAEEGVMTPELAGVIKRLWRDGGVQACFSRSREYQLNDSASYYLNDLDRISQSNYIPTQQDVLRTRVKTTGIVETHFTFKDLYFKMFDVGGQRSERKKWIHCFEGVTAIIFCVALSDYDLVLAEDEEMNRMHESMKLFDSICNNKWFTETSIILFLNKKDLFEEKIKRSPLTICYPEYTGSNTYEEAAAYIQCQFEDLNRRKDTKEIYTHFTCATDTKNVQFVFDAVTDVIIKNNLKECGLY
GIV:Gαi, sequence (P08754 whole entry): as above
UniProt P08754, sequence (P08754 whole entry): as above

Regarding `O=C(O)C1=CC(=C(c2ccc(O)c(C(=O)O)c2)c2ccc(O)c(C(=O)O)c2)C=CC1=O` [ATA, aurintricarboxylic acid], the IC50 (commonly the concentration needed to halve the response being measured) at GIV:Gαi3 interaction is approximately 5 µM.

Take `O=C(Nc1cccc(C(=O)Nc2ccc(S(=O)(=O)[O-])c3cc(S(=O)(=O)[O-])cc(S(=O)(=O)[O-])c23)c1)Nc1cccc(C(=O)Nc2ccc(S(=O)(=O)[O-])c3cc(S(=O)(=O)[O-])cc(S(=O)(=O)[O-])c23)c1.[Na+].[Na+].[Na+].[Na+].[Na+].[Na+]` [NF023, 8,8′-[carbonylbis(imino-3,1-phenylenecarbonylimino)]bis(1,3,5-naphthalene-trisulfonic acid) hexasodium salt]: the “confirmation as hit by GST-pulldown” value on GIV:Gαi is “true hits”. Further, the half-maximal inhibitory concentration (IC50) against GIV:Gαi3 interaction is approximately 5 µM.

For `Cc1ccc(C(=O)Nc2ccc(S(=O)(=O)O)c3cc(S(=O)(=O)O)cc(S(=O)(=O)O)c23)cc1NC(=O)c1cccc(NC(=O)Nc2cccc(C(=O)Nc3cc(C(=O)Nc4ccc(S(=O)(=O)O)c5cc(S(=O)(=O)O)cc(S(=O)(=O)O)c45)ccc3C)c2)c1` [Suramin, suramin], the Ki (usually a dissociation constant, usually derived from enzyme kinetics or from competition with a known ligand) in assay [1] is 49 µM.

Compound `Cc1ccc(C(=O)Nc2ccc(S(=O)(=O)O)c3cc(S(=O)(=O)O)cc(S(=O)(=O)O)c23)cc1NC(=O)c1cccc(NC(=O)Nc2cccc(C(=O)Nc3cc(C(=O)Nc4ccc(S(=O)(=O)O)c5cc(S(=O)(=O)O)cc(S(=O)(=O)O)c45)ccc3C)c2)c1` [suramin] came in with an IC50 at GIV:Gαi3 interaction of approximately 805 µM.

As for `CC[C@@]1(O)C(=O)OCc2c1cc1n(c2=O)Cc2cc3c(CN(C)C)c(O)ccc3nc2-1` [topotecan], the “confirmation as hit by GST-pulldown” value on GIV:Gαi is on record as “false positive”.
